Test results as given in patent US20070259907A1, “ARYL AND ARYLALKYLENYL SUBSTITUTED THIAZOLOQUINOLINES AND THIAZOLONAPHTHYRIDINES” (priority 2004, published 2007).

SMILES	melting point
CCCc1nc2c(N)nc3cc(-c4cccc(NC(C)=O)c4)ccc3c2s1 [Example 49, N-[3-(4-Amino-2-propylthiazolo[4,5-c]quinolin-7-yl)phenyl]acetamide]	173 to 176 °C
CCCc1nc2c(N)nc3ccc(-c4ccc(F)cc4CN)cc3c2s1 [Example 136, 8-[2-(Aminomethyl)-4-fluorophenyl]-2-propylthiazolo[4,5-c]quinolin-4-amine]	198 to 201 °C
CCCc1nc2c(N)nc3ccc(-c4cccc(NS(C)(=O)=O)c4)cc3c2s1 [Example 138, N-[3-(4-Amino-2-propylthiazolo[4,5-c]quinolin-8-yl)phenyl]methanesulfonamide]	244 to 246 °C
CCCc1nc2c(N)nc3ccc(-c4ccc(NC(C)=O)cc4)cc3c2s1 [Example 137, N-[4-(4-Amino-2-propylthiazolo[4,5-c]quinolin-8-yl)phenyl]acetamide]	251 to 254 °C
CCCc1nc2c(N)nc3ccc(-c4cccc(CO)c4)cc3c2s1 [Example 140, [3-(4-Amino-2-propylthiazolo[4,5-c]quinolin-8-yl)phenyl]methanol]	176 to 177 °C
CCCc1nc2c(N)nc3cc(-c4ccc(NC(C)=O)cc4)ccc3c2s1 [Example 44, N-[4-(4-Amino-2-propylthiazolo[4,5-c]quinolin-7-yl)phenyl]acetamide]	252 to 255 °C
CCCc1nc2c(N)nc3ccc(-c4ccc(CO)cc4)cc3c2s1 [Example 141, [4-(4-Amino-2-propylthiazolo[4,5-c]quinolin-8-yl)phenyl]methanol]	212 to 214 °C
CCCc1nc2c(N)nc3cc(-c4ccccc4CO)ccc3c2s1 [Example 3, [2-(4-Amino-2-propylthiazolo[4,5-c]quinolin-7-yl)phenyl]methanol]	216 to 219 °C
CCCc1nc2c(N)nc3cc(-c4cccc(C(=O)NC5CC5)c4)ccc3c2s1 [Example 45, 3-(4-Amino-2-propylthiazolo[4,5-c]quinolin-7-yl)-N-cyclopropylbenzamide]	251 to 254 °C
CCCc1nc2c(N)nc3ccc(-c4cccc(NC(C)=O)c4)cc3c2s1 [Example 135, N-[3-(4-Amino-2-propylthiazolo[4,5-c]quinolin-8-yl)phenyl]acetamide]	242 to 245 °C
CCCc1nc2c(N)nc3cc(-c4cccc(CN)c4)ccc3c2s1 [Example 50, 7-(3-Aminomethylphenyl)-2-propylthiazolo[4,5-c]quinolin-4-amine]	168 to 171 °C
CCCc1nc2c(N)nc3cc(-c4cccc(C(=O)N5CCCC5)c4)ccc3c2s1 [Example 43, 2-Propyl-7-[3-(pyrrolidin-1-ylcarbonyl)phenyl]thiazolo[4,5-c]quinolin-4-amine]	177 to 180 °C
CCCc1nc2c(N)nc3ccc(-c4cccc(CN)c4)cc3c2s1 [Example 142, 8-[3-(Aminomethyl)phenyl]-2-propylthiazolo[4,5-c]quinolin-4-amine]	189 to 191 °C
CCCc1nc2c(N)nc3ccc(-c4cccc(S(C)(=O)=O)c4)cc3c2s1 [Example 134, 8-[3-(Methylsulfonyl)phenyl]-2-propylthiazolo[4,5-c]quinolin-4-amine]	252 to 255 °C
CCCc1nc2c(N)nc3cc(-c4cccc(C(=O)N(CC)CC)c4)ccc3c2s1 [Example 42, 3-(4-Amino-2-propylthiazolo[4,5-c]quinolin-7-yl)-N,N-diethylbenzamide]	169 to 172 °C
CCCc1nc2c(N)nc3cc(-c4cccc(C(=O)N5CCOCC5)c4)ccc3c2s1 [Example 4, 7-[3-(Morpholin-4-ylcarbonyl)phenyl]-2-propylthiazolo[4,5-c]quinolin-4-amine]	190 to 193 °C
CCCc1nc2c(N)nc3cc(-c4cccc(S(C)(=O)=O)c4)ccc3c2s1 [Example 48, 7-[3-(Methylsulfonyl)phenyl]-2-propylthiazolo[4,5-c]quinolin-4-amine]	242 to 245 °C
CCCc1nc2c(N)nc3cc(-c4cccc(CO)c4)ccc3c2s1 [Example 1, [3-(4-Amino-2-propylthiazolo[4,5-c]quinolin-7-yl)phenyl]methanol]	186 to 188 °C
CCCc1nc2c(N)nc3cc(-c4ccc(F)cc4CN)ccc3c2s1 [Example 51, 7-[2-(Aminomethyl)-4-fluorophenyl)-2-propylthiazolo[4,5-c]quinolin-4-amine]	181 to 184 °C
CCCc1nc2c(N)nc3cc(-c4ccccc4NC(C)=O)ccc3c2s1 [Example 46, N-[2-(4-Amino-2-propylthiazolo[4,5-c]quinolin-7-yl)phenyl]acetamide]	206 to 209 °C
CCCc1nc2c(N)nc3ccc(-c4ccc(CN)cc4)cc3c2s1 [Example 143, 8-[4-(Aminomethyl)phenyl]-2-propylthiazolo[4,5-c]quinolin-4-amine]	225 to 226 °C
CCCc1nc2c(N)nc3cc(-c4ccccc4C(N)=O)ccc3c2s1 [Example 47, 2-(4-Amino-2-propylthiazolo[4,5-c]quinolin-7-yl)benzamide]	274 to 276 °C
CCCc1nc2c(N)nc3cc(-c4cccc(NS(C)(=O)=O)c4)ccc3c2s1 [Example 2, N-[3-(4-Amino-2-propylthiazolo[4,5-c]quinolin-7-yl)phenyl]methanesulfonamide]	228 to 231 °C
CCCc1nc2c(N)nc3ccc(-c4ccccc4CO)cc3c2s1 [Example 139, [2-(4-Amino-2-propylthiazolo[4,5-c]quinolin-8-yl)phenyl]methanol]	194 to 196 °C
